In assay [1] the test system is human cervical tumor cell line HeLa (ATCC CCL-2). Nature of the assay: SAC-Formation - Paclitaxel-Induced Assay. Particulars: 24 h, HeLa cells, paclitaxel 0.05 μM, test range 0.005 μM-20 μM, read-out: IC50 [mol/l] SAC-Formation - Paclitaxel-Induced Assay. Format: cell-based. A digest of the protocol:
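Read-out is high-content imaging of anti-phospho-H3 Ser10 (mitosis) and Hoechst 33342 (DNA, cell number), with decreased mitotic fraction marking checkpoint breakthrough. Compounds (0.005–20 μM) and 0.05 μM paclitaxel co-added to overnight-plated HeLa for 24 h at 37° C; four-parameter Hill fit.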

For assay [2] the test system is unchanged. Briefly: SAC-Formation - Nocodazole-Induced Assay. As to conditions: Homo sapiens, HeLa, 24 h, HeLa cells, nocodazole 0.1 μg/ml together with test compound, decrease of mitotic cells (phospho-histone H3 Ser10). Format: cell-based. Put shortly: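 Loss of phospho-histone H3 Ser10-positive cells, counted against Hoechst-stained nuclei by high-content imaging, marked mitotic breakthrough. Compounds (0.005–20 μM, 0.5% DMSO) were co-dosed with 0.1 μg/ml nocodazole onto HeLa cells for 24 h at 37 °C. Curves were fitted with a four-parameter Hill equation.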

Among the data in patent publication US20170334899A1, “AMINO-SUBSTITUTED ISOTHIAZOLES” (Bayer Pharma Aktiengesellschaft, priority 2014, published 2017) are IC50 values, retold here.

In the case of `Cc1nsc(Nc2cnc(C(F)(F)F)cn2)c1C(=O)Nc1ccc(OC[C@@H]2CCCN(CC(F)F)C2)nc1` [Example 375, N-(6-{[(3R)-1-(2,2-difluoroethyl)piperidin-3-yl]methoxy}pyridin-3-yl)-3-methyl-5-{[5-(trifluoromethyl)pyrazin-2-yl]amino}-1,2-thiazole-4-carboxamide], the IC50 in assay [1] (Homo sapiens, HeLa) came to 0.2 µM; in assay [2] it was 0.04 µM.
As to `Cc1nsc(Nc2cnc(C(F)(F)F)cn2)c1C(=O)Nc1ccc(OC[C@@H]2CCCN(CC(F)(F)F)C2)nc1` [Example 376, 3-methyl-N-(6-{[(3R)-1-(2,2,2-trifluoroethyl)piperidin-3-yl]methoxy}pyridin-3-yl)-5-{[5-(trifluoromethyl)pyrazin-2-yl]amino}-1,2-thiazole-4-carboxamide], the IC50 was determined as 0.044 µM in assay [1] (Homo sapiens, HeLa) and 0.05 µM in assay [2].
In the case of `Cc1nsc(Nc2cnc(C(F)(F)F)cn2)c1C(=O)Nc1ccc(OC[C@@H]2CCCN(CCC(F)(F)F)C2)nc1` [Example 377, 3-methyl-5-{[5-(trifluoromethyl)pyrazin-2-yl]amino}-N-(6-{[(3R)-1-(3,3,3-trifluoropropyl)piperidin-3-yl]methoxy}pyridin-3-yl)-1,2-thiazole-4-carboxamide], the IC50 was 0.088 µM in assay [1] (Homo sapiens, HeLa) and 0.04 µM in assay [2].
In the same order, the values of `Cc1nsc(Nc2cnc(C(F)(F)F)cn2)c1C(=O)Nc1ccc(O[C@@H]2CCN(CC(F)F)C2)nc1` [Example 379, N-(6-{[(3R)-1-(2,2-difluoroethyl)pyrrolidin-3-yl]oxy}pyridin-3-yl)-3-methyl-5-{[5-(trifluoromethyl)pyrazin-2-yl]amino}-1,2-thiazole-4-carboxamide] are 0.096 µM and 0.034 µM.
In the same order, the values of `Cc1nsc(Nc2cnc(C(F)(F)F)cn2)c1C(=O)Nc1ccc(O[C@@H]2CCN(CC(F)(F)F)C2)nc1` [Example 380, 3-methyl-N-(6-{[(3R)-1-(2,2,2-trifluoroethyl)pyrrolidin-3-yl]oxy}pyridin-3-yl)-5-{[5-(trifluoromethyl)pyrazin-2-yl]amino}-1,2-thiazole-4-carboxamide] are 0.33 µM and 0.34 µM.
For the compound `Cc1nsc(Nc2cnc(C(F)(F)F)cn2)c1C(=O)Nc1ccc(O[C@@H]2CCN(CCC(F)(F)F)C2)nc1` [Example 381, 3-methyl-5-{[5-(trifluoromethyl)pyrazin-2-yl]amino}-N-(6-{[(3R)-1-(3,3,3-trifluoropropyl)pyrrolidin-3-yl]oxy}pyridin-3-yl)-1,2-thiazole-4-carboxamide], the IC50 in assay [1] (Homo sapiens, HeLa) is 0.14 µM; in assay [2], 0.047 µM.
Turning to `Cc1nsc(Nc2cnc(C(F)(F)F)cn2)c1C(=O)Nc1ccc(O[C@H]2CCN(CC(F)F)C2)nc1` [Example 382, N-(6-{[(3S)-1-(2,2-difluoroethyl)pyrrolidin-3-yl]oxy}pyridin-3-yl)-3-methyl-5-{[5-(trifluoromethyl)pyrazin-2-yl]amino}-1,2-thiazole-4-carboxamide], the IC50 in assay [1] (Homo sapiens, HeLa) worked out at 0.045 µM; in assay [2], 0.024 µM.
With `Cc1nsc(Nc2cnc(C(F)(F)F)cn2)c1C(=O)Nc1ccc(O[C@H]2CCN(CC(F)(F)F)C2)nc1` [Example 383, 3-methyl-N-(6-{[(3S)-1-(2,2,2-trifluoroethyl)pyrrolidin-3-yl]oxy}pyridin-3-yl)-5-{[5-(trifluoromethyl)pyrazin-2-yl]amino}-1,2-thiazole-4-carboxamide], the IC50 in assay [1] (Homo sapiens, HeLa) came out at 0.027 µM; in assay [2], 0.027 µM.
As for `Cc1nsc(Nc2cnc(C(F)(F)F)cn2)c1C(=O)Nc1ccc(O[C@H]2CCN(CCC(F)(F)F)C2)nc1` [Example 384, 3-methyl-5-{[5-(trifluoromethyl)pyrazin-2-yl]amino}-N-(6-{[(3S)-1-(3,3,3-trifluoropropyl)pyrrolidin-3-yl]oxy}pyridin-3-yl)-1,2-thiazole-4-carboxamide], the IC50 in assay [1] (Homo sapiens, HeLa) was 0.032 µM; in assay [2], 0.062 µM.
Take `Cc1nsc(Nc2cnc(C(F)(F)F)cn2)c1C(=O)Nc1ccc(O[C@@H]2CCCN(CC(F)F)C2)nc1` [Example 385, N-(6-{[(3R)-1-(2,2-difluoroethyl)piperidin-3-yl]oxy}pyridin-3-yl)-3-methyl-5-{[5-(trifluoromethyl)pyrazin-2-yl]amino}-1,2-thiazole-4-carboxamide]: the IC50 in assay [1] (Homo sapiens, HeLa) was 0.3 µM; in assay [2] it was 0.18 µM.
With `Cc1nsc(Nc2cnc(C(F)(F)F)cn2)c1C(=O)Nc1ccc(O[C@@H]2CCCN(CC(F)(F)F)C2)nc1` [Example 386, 3-methyl-N-(6-{[(3R)-1-(2,2,2-trifluoroethyl)piperidin-3-yl]oxy}pyridin-3-yl)-5-{[5-(trifluoromethyl)pyrazin-2-yl]amino}-1,2-thiazole-4-carboxamide], the IC50 was found to be 0.057 µM in assay [1] (Homo sapiens, HeLa) and 0.041 µM in assay [2].
For `Cc1nsc(Nc2cnc(C(F)(F)F)cn2)c1C(=O)Nc1ccc(O[C@@H]2CCCN(CCC(F)(F)F)C2)nc1` [Example 387, 3-methyl-5-{[5-(trifluoromethyl)pyrazin-2-yl]amino}-N-(6-{[(3R)-1-(3,3,3-trifluoropropyl)piperidin-3-yl]oxy}pyridin-3-yl)-1,2-thiazole-4-carboxamide], the IC50 in assay [1] (Homo sapiens, HeLa) stood at 0.13 µM; in assay [2] it was 0.07 µM.
Regarding `Cc1nsc(Nc2cnc(C(F)(F)F)cn2)c1C(=O)Nc1ccc(O[C@H]2CCCN(CC(F)F)C2)nc1` [Example 388, N-(6-{[(3S)-1-(2,2-difluoroethyl)piperidin-3-yl]oxy}pyridin-3-yl)-3-methyl-5-{[5-(trifluoromethyl)pyrazin-2-yl]amino}-1,2-thiazole-4-carboxamide], the IC50 in assay [1] (Homo sapiens, HeLa) came out at 0.08 µM; in assay [2], 0.037 µM.
Take `Cc1nsc(Nc2cnc(C(F)(F)F)cn2)c1C(=O)Nc1ccc(O[C@H]2CCCN(CC(F)(F)F)C2)nc1` [Example 389, 3-methyl-N-(6-{[(3S)-1-(2,2,2-trifluoroethyl)piperidin-3-yl]oxy}pyridin-3-yl)-5-{[5-(trifluoromethyl)pyrazin-2-yl]amino}-1,2-thiazole-4-carboxamide]: the IC50 in assay [1] (Homo sapiens, HeLa) was found to be 0.16 µM; in assay [2], 0.093 µM.
For `Cc1nsc(Nc2cnc(C(F)(F)F)cn2)c1C(=O)Nc1ccc(O[C@H]2CCCN(CCC(F)(F)F)C2)nc1` [Example 390, 3-methyl-5-{[5-(trifluoromethyl)pyrazin-2-yl]amino}-N-(6-{[(3S)-1-(3,3,3-trifluoropropyl)piperidin-3-yl]oxy}pyridin-3-yl)-1,2-thiazole-4-carboxamide], the IC50 in assay [1] (Homo sapiens, HeLa) is 0.11 µM; in assay [2], 0.11 µM.
Regarding `Cc1nsc(Nc2cnc(C(F)(F)F)cn2)c1C(=O)Nc1ccc(OCC2CCN(CC(F)(F)F)CC2(F)F)nc1` (centres unmarked) [Example 392, N-(6-{[3,3-difluoro-1-(2,2,2-trifluoroethyl)piperidin-4-yl]methoxy}pyridin-3-yl)-3-methyl-5-{[5-(trifluoromethyl)pyrazin-2-yl]amino}-1,2-thiazole-4-carboxamide], the IC50 in assay [1] was found to be 0.027 µM; in assay [1] (Homo sapiens, HeLa) it was 0.03 µM; in assay [2] it was 0.074 µM.
On to `CCN1CCC(COc2ccc(NC(=O)c3c(C)nsc3Nc3cnc(C(F)(F)F)cn3)cn2)C(F)(F)C1` (centres unmarked) [Example 393, N-{6-[(1-ethyl-3,3-difluoropiperidin-4-yl)methoxy]pyridin-3-yl}-3-methyl-5-{[5-(trifluoromethyl)pyrazin-2-yl]amino}-1,2-thiazole-4-carboxamide], for which the IC50 came to 0.44 µM in assay [1] (Homo sapiens, HeLa) and 0.014 µM in assay [2].
For `Cc1nsc(Nc2cnc(C(F)(F)F)cn2)c1C(=O)Nc1ccc(F)c(OC[C@@H]2CCCN(CCC(F)(F)F)C2)c1` [Example 395, N-(4-fluoro-3-{[(3R)-1-(3,3,3-trifluoropropyl)piperidin-3-yl]methoxy}phenyl)-3-methyl-5-{[5-(trifluoromethyl)pyrazin-2-yl]amino}-1,2-thiazole-4-carboxamide], the IC50 is 0.027 µM in assay [1]; 0.035 µM in assay [1] (Homo sapiens, HeLa); 0.035 µM in assay [2].
Turning to `CCCCN1CCC(COc2ccc(NC(=O)c3c(C)nsc3Nc3cnc(C(F)(F)F)cn3)cn2)C(F)(F)C1` (centres unmarked) [Example 396, N-{6-[(1-butyl-3,3-difluoropiperidin-4-yl)methoxy]pyridin-3-yl}-3-methyl-5-{[5-(trifluoromethyl)pyrazin-2-yl]amino}-1,2-thiazole-4-carboxamide], the IC50 in assay [1] (Homo sapiens, HeLa) is 0.018 µM; in assay [2], 0.014 µM.
As to `Cc1nsc(Nc2cnc(C(F)(F)F)cn2)c1C(=O)Nc1ccc(F)c(OC[C@H]2CCN(CC(F)F)C2)c1` [Example 397, N-(3-{[(3S)-1-(2,2-difluoroethyl)pyrrolidin-3-yl]methoxy}-4-fluorophenyl)-3-methyl-5-{[5-(trifluoromethyl)pyrazin-2-yl]amino}-1,2-thiazole-4-carboxamide], the IC50 was 0.082 µM in assay [1] (Homo sapiens, HeLa) and 0.031 µM in assay [2].
Consider `Cc1nsc(Nc2cnc(C(F)(F)F)cn2)c1C(=O)Nc1ccc(F)c(OC[C@H]2CCN(CC(F)(F)F)C2)c1` [Example 398, N-(4-fluoro-3-{[(3S)-1-(2,2,2-trifluoroethyl)pyrrolidin-3-yl]methoxy}phenyl)-3-methyl-5-{[5-(trifluoromethyl)pyrazin-2-yl]amino}-1,2-thiazole-4-carboxamide], for which the IC50 turned out to be 0.056 µM in assay [1] (Homo sapiens, HeLa) and 0.028 µM in assay [2].
